{"source": "patent US8188074B2", "about": "(priority 2001, dated 2012)", "key": {"E. coli [1]": {"test_system": "E. coli", "experiment": "Photoinactivation of E. coli", "assay_type": "cell-based", "details": "for log change in CFU/ml / percentage cell survival / log change CFU/ml: E. coli; for log change CFU/ml: laser light", "description": "(§1) Cell inactivation was then measured."}, "C. albicans": {"test_system": "C. albicans", "experiment": "Photoinactivation of C. albicans", "assay_type": "cell-based, Candida albicans", "details": "10 μM; laser light at 0.1 W", "description": "as §1"}, "S. aureus": {"test_system": "S. aureus", "details": "10 μM, laser light (665 nm) 0.1 W", "protocol": "(§2) Stock solutions of the photosensitisers were made up to 5 mM in dimethylsulfoxide (DMSO). The 5 mM stock was further diluted in DMSO to a working concentration of 1 mM. All photosensitisers were stored in foil covered vials at room temperature until required.\n(§3) The microorganisms were grown until in the mid-logarithmic phase and then harvested and resuspended.\n(§4) The log or stationary phase cells were collected by centrifugation and washed twice in 0.1 M potassium phosphate buffer (pH 7.0). Following washing, the cells were resuspended in the same buffer to an absorbance of 0.87 at 650 nm.\n(§5) 25 ml of the prepared cell suspension was incubated with 0.25 mls of a 1 mM stock solution of photosensitiser (giving a final concentration of 10 μM) in a 250 ml sterile foil covered conical flask. The suspension was incubated for 30 minutes in the dark in a 37° C. shaking incubator at 250 rpm.\n(§6) After incubation with 10 μM phenothiazinium compound, 10 ml of the bacterial culture was aseptically transferred to a sterile cell. This consisted of a sealed vial with a sealed capillary tube inserted, into which the optical fibre could be placed. […]\n(§7) 50 ml of the illuminated and non-illuminated samples of the suspension were removed and diluted in 0.1 M pH 7.0 potassium phosphate buffer. […] Cell inactivation was then measured."}, "E. coli [2]": {"test_system": "E. coli"}, "P. aeruginosa": {"test_system": "P. aeruginosa", "experiment": "Photoinactivation of P. aeruginosa", "details": "10 μM, laser light (665 nm) 0.1 W", "protocol": "as §2, §3, §4, §5, §6, §7"}, "[3]": {"experiment": "Octanol-buffer partition coefficient", "description": "The octanol buffer partition coefficient (p) determines the lipophilicity of the drug."}, "[4]": {"test_system": "RIF-1 murine fibrosarcoma cells", "experiment": "Cellular uptake in RIF-1 cells", "assay_type": "cell-based", "details": "2 h incubation, solubilised in 2% SDS, fluorescence"}, "[5]": {"details": "patients after administration; cited from earlier work"}, "[6]": {"details": "30 min with 10 μM, halogen lamp 60 minutes at 1.3 mW/cm^2"}, "[7]": {"details": "octanol-buffer partition coefficient"}}, "note": "Like-named read-outs stand apart in the source and are kept apart here.", "data": [{"molecule": "3,7-(tetra-n-butylamino)-phenothiazin-5-ium [Compound 2]", "values": [{"measurement": "log change in CFU/ml of washed versus unwashed E. coli cells, FIG. 10", "setting": "E. coli [1]; 10 μM, washed twice, laser light (665 nm) 0.1 W for 4 minutes", "result": "little difference"}, {"measurement": "log change in CFU/ml", "setting": "E. coli [1]; [6]", "result": 5.1, "unit": "log10"}, {"measurement": "percentage cell survival", "setting": "E. coli [1]; [6]", "result": 0.001, "unit": "%"}, {"measurement": "log change in CFU/ml", "setting": "E. coli [1]; 30 min with 10 μM, illuminated 15 minutes at 1.3 mW/cm^2", "result": 4.59, "unit": "log10 units"}, {"measurement": "log change in CFU/ml", "setting": "E. coli [1]; 30 min with 50 μM, illuminated 15 minutes at 1.3 mW/cm^2", "result": 2.15, "unit": "units"}, {"measurement": "log change CFU/ml", "setting": "E. coli [1]; 14 minute illumination at 0.1 W", "result": 5.69, "unit": "log"}, {"measurement": "log change CFU/ml", "setting": "E. coli [1]; 20 minute illumination at 0.1 W, number of CFU too small to be statistically reliable", "result": "~8.5", "unit": "units"}, {"measurement": "antibacterial activity, E. coli resuspended in nutrient medium, FIG. 7", "setting": "E. coli [1]; nutrient medium, 10 μM, 60 minutes at 1.3 mW/cm^2", "result": "highest antibacterial activity"}, {"measurement": "killing of Candida albicans in the light, FIG. 16", "setting": "C. albicans", "result": "readily destroyed"}, {"measurement": "bacteria inactivated", "setting": "S. aureus; 1 minute", "result": "~99", "unit": "%"}, {"measurement": "cell kill", "setting": "S. aureus; 10 minutes", "result": "~5", "unit": "logs"}, {"measurement": "growth of an E. coli culture in the dark compared to control, FIG. 11", "setting": "E. coli [2]; 10 μM in growth media, dark, 37° C., 6 hours, turbidity at 550 nm", "result": "greatest inhibition"}, {"measurement": "growth of E. coli after addition of photosensitiser at 3 hours, in the dark, FIG. 12", "setting": "E. coli [2]; 10 μM, dark", "result": "continuing growth"}, {"measurement": "growth of E. coli after addition of photosensitiser at 3 hours, in the light, FIG. 12", "setting": "E. coli [2]; 10 μM, light", "result": "complete elimination of growth"}, {"measurement": "cell kill", "setting": "P. aeruginosa; 2 minutes", "result": "greater than 99%"}, {"measurement": "cell kill", "setting": "P. aeruginosa; 10 minutes", "result": "~4", "unit": "logs"}]}, {"molecule": "3-(N,N-diethanolamino)-7-(N,N-dipentylamino)-phenothiazin-5-ium iodide [Compound 28]", "values": [{"measurement": "Log P", "setting": "[3]", "result": "+1.1"}]}, {"molecule": "CCCCCCN(CCCCCC)c1ccc2nc3ccc(N(CCCCCC)CCCCCC)cc3[s+]c2c1.[Br-]", "note": "[Compound 4]", "values": [{"measurement": "Log P", "setting": "[3]; [7]", "result": "+1.3"}, {"measurement": "Uptake at PDT LD50", "setting": "[4]", "result": 1.6, "unit": "nmol/mg protein"}, {"measurement": "log change in CFU/ml", "setting": "E. coli [1]; [6]", "result": 0.19, "unit": "log10"}, {"measurement": "percentage cell survival", "setting": "E. coli [1]; [6]", "result": 65.3, "unit": "%"}]}, {"molecule": "CCN(CC)c1ccc2nc3ccc(N(CC)CC)cc3[s+]c2c1.[Cl-]", "note": "[Compound 6, ethylene blue, reference compound]", "values": [{"measurement": "Log P", "setting": "[3]; [7]", "result": "+0.2"}, {"measurement": "Uptake at PDT LD50", "setting": "[4]", "result": 2.9, "unit": "nmol/mg protein"}]}, {"molecule": "CCCCN(CCCC)c1ccc2nc3ccc(N4CCOCC4)cc3[s+]c2c1.[I-]", "note": "[Compound 24]", "values": [{"measurement": "Log P", "setting": "[3]; [7]", "result": "+1.0"}]}, {"molecule": "Oc1cccc(-c2c3nc(c(-c4cccc(O)c4)c4ccc([nH]4)c(-c4cccc(O)c4)c4nc(c(-c5cccc(O)c5)c5ccc2[nH]5)CC4)C=C3)c1", "note": "[Foscan]", "values": [{"measurement": "period of sensitivity to light", "setting": "[5]", "result": "approximately 15 days"}]}]}
